From PubChem BioAssay AID248 (DTP/NCI, 2004)
Values joined by “and” are separate entries in the source; they are usually repeats but may differ in a detail not shown here. Equal entries are not always repeated. Inconclusive results and toxic doses are left out. No stated cut-off is given here; in the data, active means T/C of 150% or more; inactive means T/C below 125%.

Tested on: L1210 leukemia ip in BDF1 mice, survival T/C
Assay: NCI In Vivo Anticancer Drug Screen. Data for tumor model L1210 Leukemia (intraperitoneal) in B6D2F1 (BDF1) mice
Conditions: endpoint: mean survival time, higher = longer survival
Outline: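 Survival endpoint. Drug-treated group vs vehicle group, expressed as T divided by C. Tumor passaged by transplantation.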

[1] = dose: 100.0 mg/kg/injection, schedule: Q04DX003 (ip), vehicle: Klucel (hydroxypropylcellulose) (HPC)
[2] = dose: 200.0 mg/kg/injection, schedule: Q04DX003 (ip), vehicle: Klucel (hydroxypropylcellulose) (HPC)
[3] = dose: 400.0 mg/kg/injection, schedule: Q04DX003 (ip), vehicle: Klucel (hydroxypropylcellulose) (HPC)
[4] = dose: 100.0 mg/kg/injection, schedule: Q01DX009 (ip), vehicle: Klucel (hydroxypropylcellulose) (HPC)
[5] = dose: 200.0 mg/kg/injection, schedule: Q01DX009 (ip), vehicle: Klucel (hydroxypropylcellulose) (HPC)
[6] = dose: 400.0 mg/kg/injection, schedule: Q01DX009 (ip), vehicle: Klucel (hydroxypropylcellulose) (HPC)
[7] = dose: 25.0 mg/kg/injection, schedule: Q01DX009 (ip), vehicle: saline with Tween-80
[8] = dose: 50.0 mg/kg/injection, schedule: Q01DX009 (ip), vehicle: saline with Tween-80
[9] = dose: 100.0 mg/kg/injection, schedule: Q01DX009 (ip), vehicle: saline with Tween-80
[10] = dose: 100.0 mg/kg/injection, schedule: Q01DX001 (ip), vehicle: saline
[11] = dose: 200.0 mg/kg/injection, schedule: Q01DX001 (ip), vehicle: saline
[12] = dose: 400.0 mg/kg/injection, schedule: Q01DX001 (ip), vehicle: saline
[13] = dose: 100.0 mg/kg/injection, schedule: Q04DX003 (ip), vehicle: saline with Tween-80

Measured: T/C

O=c1[nH]cc(C(F)(F)F)c(=O)[nH]1
inactive: dose: 4.0 mg/kg/injection, schedule: Q01DX Z (oral), vehicle: methylcellulose (MC) 106 % of control | dose: 8.0 mg/kg/injection, schedule: Q01DX Z (oral), vehicle: methylcellulose (MC) 102 % of control | dose: 12.0 mg/kg/injection, schedule: Q01DX Z (oral), vehicle: methylcellulose (MC) 103 % of control and 91 % of control | dose: 16.0 mg/kg/injection, schedule: Q01DX Z (oral), vehicle: methylcellulose (MC) 90 % of control | dose: 50.0 mg/kg/injection, schedule: Q01DX Z (ip), vehicle: saline 103 % of control | dose: 100.0 mg/kg/injection, schedule: Q01DX Z (ip), vehicle: saline 107 % of control | dose: 200.0 mg/kg/injection, schedule: Q01DX Z (ip), vehicle: saline 116 % of control and 123 % of control | dose: 300.0 mg/kg/injection, schedule: Q01DX Z (ip), vehicle: saline 124 % of control | dose: 400.0 mg/kg/injection, schedule: Q01DX Z (ip), vehicle: saline 98 % of control | dose: 500.0 mg/kg/injection, schedule: Q01DX Z (ip), vehicle: saline 117 % of control | dose: 500.0 mg/kg/injection, schedule: Q01DX Z (oral), vehicle: methylcellulose (MC) 111 % of control | dose: 1000.0 mg/kg/injection, schedule: Q01DX Z (oral), vehicle: methylcellulose (MC) 93 % of control | dose: 1500.0 mg/kg/injection, schedule: Q01DX Z (oral), vehicle: methylcellulose (MC) 94 % of control | dose: 2000.0 mg/kg/injection, schedule: Q01DX Z (oral), vehicle: methylcellulose (MC) 88 % of control

CC[CH2][Sn]([CH2]CC)([CH2]CC)[O][Sn]([CH2]CC)([CH2]CC)[CH2]CC
inactive: dose: 0.5 mg/kg/injection, schedule: Q01DX009 (ip), vehicle: saline 95 % of control | dose: 1.0 mg/kg/injection, schedule: Q01DX009 (ip), vehicle: saline 100 % of control | dose: 1.0 mg/kg/injection, schedule: Q04DX003 (ip), vehicle: saline with Tween-80 97 % of control | dose: 2.0 mg/kg/injection, schedule: Q01DX009 (ip), vehicle: saline 93 % of control | dose: 2.0 mg/kg/injection, schedule: Q04DX003 (ip), vehicle: saline with Tween-80 90 % of control

O=C(CC(C(=O)c1ccccc1)N1CC1)c1ccccc1 (stereo not drawn)
inactive: dose: 50.0 mg/kg/injection, schedule: Q01DX009 (ip), vehicle: saline sonified 91 % of control | dose: 50.0 mg/kg/injection, schedule: Q04DX003 (ip), vehicle: saline sonified 96 % of control | dose: 100.0 mg/kg/injection, schedule: Q01DX009 (ip), vehicle: saline sonified 94 % of control | dose: 100.0 mg/kg/injection, schedule: Q04DX003 (ip), vehicle: saline sonified 92 % of control | dose: 200.0 mg/kg/injection, schedule: Q04DX003 (ip), vehicle: saline sonified 97 % of control

Oc1nc(/N=C2/N=c3ccc(Cl)cc3=N2)[nH]c1O
inactive: [1] 98 % of control | [2] 106 % of control | [3] 98 % of control

O=C(N/N=C/c1ccco1)c1cccnc1
inactive: [4] 97 % of control | [5] 101 % of control

O=C(Nc1ccc(Br)cc1)Nc1ccccc1F
inactive: [4] 98 % of control | [5] 93 % of control | [6] 98 % of control

C=CCOCCC#N
inactive: [7] 95 % of control | [8] 97 % of control | [9] 100 % of control

CC[Si](CC)(CC)c1ccc(CCNCCS)s1
inactive: dose: 75.0 mg/kg/injection, schedule: Q04DX003 (ip), vehicle: saline 95 % of control | dose: 150.0 mg/kg/injection, schedule: Q04DX003 (ip), vehicle: saline 93 % of control

COc1ccc(/C=C2\N=C(c3ccc([N+](=O)[O-])cc3)OC2=O)cc1OC
inactive: [4] 91 % of control | [5] 93 % of control | [6] 101 % of control

CS(=O)(=O)O/C=C1/CCOC1=O
inactive: dose: 12.5 mg/kg/injection, schedule: Q01DX009 (ip), vehicle: water 105 % of control | dose: 25.0 mg/kg/injection, schedule: Q01DX009 (ip), vehicle: water 106 % of control

NCC(=O)c1ccc(-c2ccccc2)cc1
inactive: [10] 97 % of control | dose: 100.0 mg/kg/injection, schedule: Q04DX003 (ip), vehicle: saline 90 % of control | [11] 92 % of control | dose: 200.0 mg/kg/injection, schedule: Q04DX003 (ip), vehicle: saline 98 % of control | [12] 97 % of control

c1ccc2c(c1)cc1ncc3cccc4ccc2c1c43
inactive: [13] 88 % of control | dose: 200.0 mg/kg/injection, schedule: Q04DX003 (ip), vehicle: saline with Tween-80 102 % of control | dose: 400.0 mg/kg/injection, schedule: Q04DX003 (ip), vehicle: saline with Tween-80 88 % of control

Oc1cccc(N=Cc2ccccc2O)c1
inactive: dose: 100.0 mg/kg/injection, schedule: Q01DX001 (ip), vehicle: Klucel (hydroxypropylcellulose) (HPC) 102 % of control | [10] 97 % of control | dose: 200.0 mg/kg/injection, schedule: Q01DX001 (ip), vehicle: Klucel (hydroxypropylcellulose) (HPC) 96 % of control | [11] 100 % of control | dose: 400.0 mg/kg/injection, schedule: Q01DX001 (ip), vehicle: Klucel (hydroxypropylcellulose) (HPC) 101 % of control | [12] 105 % of control

CCCCCCC(CC)NCCO (stereo not drawn)
inactive: dose: 75.0 mg/kg/injection, schedule: Q01DX001 (ip), vehicle: saline 96 % of control

OCCN(CCO)CCN1c2ccccc2Sc2ccccc21
inactive: dose: 5.0 mg/kg/injection, schedule: Q01DX001 (ip), vehicle: saline 95 % of control | dose: 10.0 mg/kg/injection, schedule: Q01DX001 (ip), vehicle: saline 97 % of control | dose: 20.0 mg/kg/injection, schedule: Q01DX001 (ip), vehicle: saline 92 % of control | dose: 40.0 mg/kg/injection, schedule: Q01DX001 (ip), vehicle: saline 95 % of control | dose: 80.0 mg/kg/injection, schedule: Q01DX001 (ip), vehicle: saline 95 % of control | [10] 96 % of control | [11] 112 % of control

BrC(Br)c1ccccc1C(Br)Br
inactive: dose: 100.0 mg/kg/injection, schedule: Q01DX009 (ip), vehicle: gum acacia 98 % of control | dose: 100.0 mg/kg/injection, schedule: Q04DX003 (ip), vehicle: gum acacia 99 % of control | dose: 200.0 mg/kg/injection, schedule: Q01DX009 (ip), vehicle: gum acacia 98 % of control | dose: 200.0 mg/kg/injection, schedule: Q04DX003 (ip), vehicle: gum acacia 108 % of control | dose: 400.0 mg/kg/injection, schedule: Q04DX003 (ip), vehicle: gum acacia 97 % of control

CC(C)OCCCN
inactive: dose: 100.0 mg/kg/injection, schedule: Q01DX001 (ip), vehicle: carboxymethylcellulose (CMC) 97 % of control | dose: 200.0 mg/kg/injection, schedule: Q01DX001 (ip), vehicle: carboxymethylcellulose (CMC) 97 % of control

O=C(OC1CCCCCCC1)C(F)(F)F
inactive: [4] 98 % of control | [1] 104 % of control | [5] 101 % of control | [2] 105 % of control | [6] 92 % of control | [3] 105 % of control

O=C1C=CC(=O)N1c1ccc(O)cc1
inactive: dose: 1.25 mg/kg/injection, schedule: Q01DX009 (ip), vehicle: Klucel (hydroxypropylcellulose) (HPC) 105 % of control | dose: 2.5 mg/kg/injection, schedule: Q01DX009 (ip), vehicle: Klucel (hydroxypropylcellulose) (HPC) 107 % of control | dose: 2.5 mg/kg/injection, schedule: Q04DX003 (ip), vehicle: Klucel (hydroxypropylcellulose) (HPC) 96 % of control | dose: 5.0 mg/kg/injection, schedule: Q01DX009 (ip), vehicle: Klucel (hydroxypropylcellulose) (HPC) 102 % of control | dose: 5.0 mg/kg/injection, schedule: Q04DX003 (ip), vehicle: Klucel (hydroxypropylcellulose) (HPC) 95 % of control

Cc1cc2ccccc2oc1=O
inactive: [7] 101 % of control | dose: 25.0 mg/kg/injection, schedule: Q04DX003 (ip), vehicle: saline with Tween-80 98 % of control | [8] 114 % of control | dose: 50.0 mg/kg/injection, schedule: Q04DX003 (ip), vehicle: saline with Tween-80 93 % of control | [9] 107 % of control | [13] 86 % of control
